The conditions of data set [1]: cited from earlier work.
Data set [2] is described as follows: Previous experiments: dissolution in water of a composition of gallic acid alone. Type of data set: physicochemical. Particulars: composition composed only of gallic acid, no excipient. An excerpt:
In order to avoid this problem, excipients of different nature but without algicidal, algistatic, herbicidal or herbistatic effect are preferably added. The excipients are desirable to allow a rapid descent on the bottom of the various conditioning, the dissolution of the active substance or optionally of the active substances and secondly to create a stratum of a density greater than that of the water by a thickening action.

In brackets after ≈: the same amount, converted by molar mass. Like-named read-outs stand apart in the source and are kept apart here.

What is called Solubility is the concentration that dissolves in the medium under given conditions.

Consider `Oc1cccc(O)c1O` [Pyrogallic Acid, pyrogallol], for which, in data set [1] (at 20° C.), the Solubility in water was 588.00 g/L (≈ 4660 mM).
Turning to `O=c1c(O)c(-c2ccc(O)c(O)c2)oc2cc(O)cc(O)c12` [Quercetin, 2-(3,4-dihydroxyphenyl)-3,5,7-trihydroxy-4H-chromen-4-one], the Solubility in data set [1] (water) is 0.06 mg/mL (≈ 0.199 mM).
Consider `O=c1oc2c(O)c(O)cc3c(=O)oc4c(O)c(O)cc1c4c23` [Ellagic Acid, 2,3,7,8-Tetrahydroxy(1)benzopyrano (5,4,3-cde)-(1)benzopyran-5,10-dione], for which the Solubility in data set [1] (at 21° C.) was below 1 mg/mL.
Take `O=C(O)/C=C/c1ccc(O)c(O)c1` [Caffeic Acid, (E) 3-(3,4-dihydroxyphenyl)prop-2-enoic acid]: the “Solubility in water (in words)” value in data set [1] (water) is on record as “poorly soluble in water”.
With `O.O=C(O)c1cc(O)c(O)c(O)c1` [Gallic Acid Monohydrate], the Solubility in data set [1] (water at 20° C.) is 15 mg/mL.
Turning to `Oc1ccc(/C=C/c2cc(O)cc(O)c2)cc1` [Resveratrol, 5-[(E)-2-(4-hydroxyphenyl)-ethenyl] benzene-1,3-diol], the Solubility was around 16 mg/mL (≈ 70.1 mM) in data set [1] (DMSO), 50 mg/mL (≈ 219 mM) in data set [1] (ethanol) and around 0.03 mg/mL (≈ 0.131 mM) in data set [1] (water).
In the case of `O=C(O)c1cc(O)c(O)c(O)c1` [Non-Hydrated Gallic Acid, 3,4,5-trihydroxybenzoic acid], in data set [2], the Dissolution in water result was “does not dissolve or is very difficult to dissolve in water”.

The values above are taken from US20200128823A1, “ALGICIDAL, ALGISTATIC, HERBICIDAL AND HERBISTATIC TREATMENT OF WATER” (priority 2017, published 2020).
